Results published in patent publication US12583841B2, “Tetrahydropyrrolocyclic compound and application thereof” (Breakthrough Pharmaceuticals Inc., priority 2021, dated 2026).
Read-outs that look alike come from different tables or passages of the source.

Assays:
[1] = Drug concentration in brain tissue and plasma of SD rats; type: in vivo; conditions: male, Sprague-Dawley (SD), po, SD rat, p.o. 30 mg/kg
Description: (§1) 4 healthy SD rats aged 6-9 weeks were selected, and the other group was given the test compound at 10 mg/kg by intragastric administration. 2 animals were randomly selected at 0.5 h and 2 h after administration, respectively. Plasma and brain tissue samples were collected, and LC-MS/MS method was used for quantitative analysis of all biological samples.
as §1, with “healthy male” for “healthy”, “selected” for “selected,”, “and” for “and the other group was”, “compound” for “compound at 10 mg/kg”, “selected to be euthanized” for “selected”

[2] = system: SD rats; assay: Effect on spontaneous activities of SD rats; type: in vivo; conditions: SD rat, 30 mg/kg, recorded 60 min from 30 minutes after administration, Mean±SEM; blank vehicle 31.91 ± 3.92
Description: Test purpose: to judge the effect of the test compound on the activity of rats by measuring the spontaneous activity distance of rats in a period of time.
Test scheme: 12 male SD rats aged 7 weeks were adapted in the laboratory 1 day before the start of the test. On the day of the experiment, the rats were randomly divided into 2 groups according to their body weight, with 6 rats in each group, and the rats were given blank vehicle and compound 8 (30 mg/kg), respectively. The animals were put into a test box 30 minutes after administration, and the distance data of animal activity were recorded every 5 min with Any-maze software, and the recording was continued for 60 min. By comparing the total distance of animal activity within the recording time, it is judged whether the drug has a significant effect on the spontaneous activity of the animal. The experimental data were represented by the mean±[…] (Mean±SEM). The statistical method adopted one-way analysis of variance plus Dunnett's multiple comparisons. P<0.05 was represented as *, p<0.01 was represented as **, and p<0.001 was represented as ***.

[3] = biological target: T1, OX2R (Homo sapiens, UniProt O43614); assay: FLIPR intracellular calcium antagonism test, HEK293-OX2R cells; type: cell-based; conditions: Orexin A at EC70, read-out: hOX2R IC50
T1 construct: expressed in transfected cells
T1 sequence (O43614 1-444): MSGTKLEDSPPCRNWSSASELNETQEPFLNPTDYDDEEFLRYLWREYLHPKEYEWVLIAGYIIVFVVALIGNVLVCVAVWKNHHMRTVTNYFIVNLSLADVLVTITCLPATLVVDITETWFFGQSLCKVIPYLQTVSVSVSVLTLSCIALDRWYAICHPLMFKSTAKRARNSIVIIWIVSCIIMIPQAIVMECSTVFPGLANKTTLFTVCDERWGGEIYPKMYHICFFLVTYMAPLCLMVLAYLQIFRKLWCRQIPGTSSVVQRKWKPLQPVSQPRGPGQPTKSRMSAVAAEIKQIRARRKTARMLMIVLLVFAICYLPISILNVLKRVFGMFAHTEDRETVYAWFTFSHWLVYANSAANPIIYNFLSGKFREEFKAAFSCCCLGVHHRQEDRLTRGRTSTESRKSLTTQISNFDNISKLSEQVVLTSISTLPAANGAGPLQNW
Description: The change of intracellular calcium signal was detected by FLIPR, and the antagonism of the compounds on OX1R and OX2R receptors was evaluated by using IC50 value of the compounds as an index.
• Cell lines: Transfected HEK293-OX1R and HEK293-OX2R stable cell lines • HEK293-OX1R cell culture medium (DMEM, Invitrogen #11960-044, 10% serum Gibco #10099141, L-Glutamine 1×, Gibco #25030, sodium pyruvate 1×, Gibco #11360, Geneticin 300 μg/mL, Gibco #10131) • HEK293-OX2R cell culture medium (DMEM, Invitrogen #11960-044, 10% serum Gibco #10099141, L-Glutamine 1×, Gibco #25030, sodium pyruvate 1×, Gibco #11360, Geneticin 300 μg/mL, Gibco #10131, Blasticin 2 μg/mL, Invitrogen #R21001)
Experimental Steps and Methods: • a) Cell seeding (HEK293-OX1R and HEK293-OX2R cells) • 1) preheating the culture medium, trypsin and DPBS under water bath at 37° C.; pipetting and removing the medium of cell culture and washing same with 10 mL of DPBS; • 2) adding the preheated trypsin to a culture flask, rotating the culture flask so that the trypsin evenly covered the culture flask, and putting the culture flask in a 37° C., 5% CO2 incubator for digestion for 1-2 min; • 3) suspending the cells with 10-15 mL of medium for each T150 and centrifuging at 800 rpm for 5 min; resuspending the cells with 10 mL of medium, pipetting 1 mL of the cell suspension and counting with Vi-cell; • 4) diluting OX1R cells with medium to 5×10^5 cells/mL, and diluting OX2R cells with medium to 4×10^5 cells/mL, and adding the diluted cells to 384 plate (Greiner.781946) with a multi-channel pipette (50 μL/well, 25000 cells/well for OX1R cells, 20000 cells/well for OX2R cells); placing the cell plate in a 37° C., 5% CO2 incubator overnight. • b) Compound loading: • 1) diluting the compound to 20 mM with DMSO, 3-fold dilution, 8 gradients, duplicate wells, and adding same to a compound plate with an Echo liquid handler; then adding 20 μL of buffer to maintain the final concentration of DMSO of 0.1%. • c) FLIPR experiment: • 1) washing off the cell culture medium in the 384 plate with a vacuum pump, adding […] Direct fluorescent dye, incubating in 37° C., 5% CO2 incubator for 1 h, and balancing at room temperature for another 10 min. • 2) EC50 test: manually diluting Orexin A on ice, 3-fold dilution, 8 gradients, duplicate wells; preparing a DMSO plate and keep the DMSO concentration to be 0.5%; putting the cell plate, OrexinA plate, and DMSO plate in FLIPR respectively, and reading the fluorescence value. • 3) calculating the EC70 value based on the EC50 value of Orexin A; preparing a 5×EC70 solution, adding same to 384 compound plate with a multi-channel pipette, and storing on ice; • 4) putting the compound plate, 5×EC70 plate, cell plate, and FLIPR tip in sequence in FLIPR, running the program, and reading the fluorescence value. • d) Data analyzing: using Prism5.0 to analyze the data, and calculating the IC50 value of the compound.

## COc1ccc(-n2nccn2)c(C(=O)N2C(c3nc4ccc(OC)cc4[nH]3)CC3CC32)c1 (centres unmarked) [Compound 8]
[1]; brain / plasma, 0.5 h, read-out: Brain-to-blood ratio
  Kp at 0.5 h: 0.25
[1]; brain / plasma, 2 h, read-out: Brain-to-blood ratio
  Kp at 2 h: 0.19
[1]; brain, 0.5 h, read-out: Drug concentration in brain
  concentration at 0.5 h: 1390 nM
[1]; brain, 2 h, read-out: Drug concentration in brain
  concentration at 2 h: 212 nM
[1]; plasma, 0.5 h, read-out: Drug concentration in plasma
  concentration at 0.5 h: 5600 nM
[1]; plasma, 2 h, read-out: Drug concentration in plasma
  concentration at 2 h: 1100 nM
[2]
  Spontaneous activity distance: 14.73 ± 1.38 meters
[3]
  IC50: 42 nM
